The source of these data is PubChem BioAssay AID1845209 (Molecular Pharmacology Branch, DTP, NCI, 2023).

The assay has as its system NCI-H211 tumor spheroids, viability percent test/control. The assay can be described thus: Anticancer human tumor NCI-H211 cell line growth inhibition.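 As to all read-outs here: spheroids exposed to agents for seven days before readout.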 The note with it: spheroids with HUVEC and MSC; for viability, T/C: stronger effect = lower value. The method in brief: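 Complex tumor spheroids combined malignant cells with endothelial cells and mesenchymal stem cells. DNA-damaging drugs and DNA repair inhibitors were tested alone and in combination, at half-log dilutions down from clinical Cmax (top 10 microM if Cmax unknown), 0.25% DMSO final.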

In general, IC50 refers to the concentration needed to halve the response being measured. As a reminder, the viability, T/C is the ratio of treated to control.

Where “and” joins values, the source holds several entries; their conditions need not be identical. Identical values can stand only once.

For the molecule `Cn1ncnc1[C@H]1c2n[nH]c(=O)c3cc(F)cc(c23)N[C@@H]1c1ccc(F)cc1` + COc1cc2c(cc1O)CCNC21CSC2c3c(OC(C)=O)c(C)c4c(c3C(COC1=O)N1C(O)C3Cc5cc(C)c(OC)c(O)c5C(C21)N3C)OCO4, the IC50 is below 9.49 nM (curve of first compound, second compound 30 pM); below 9.49 nM (curve of first compound, second compound 94.9 pM); below 9.49 nM (curve of first compound, second compound 0.0003 µM); below 9.49 nM (curve of first compound, second compound 0.000949 µM); below 9.49 nM (curve of first compound, second compound 0.003 µM). Moreover, the viability, T/C was 0.83% (second compound 30 pM, first compound 0.00949 µM); 0.69% (second compound 30 pM, first compound 0.03 µM); 0.93% (second compound 30 pM, first compound 0.0949 µM); 0.66% (second compound 30 pM, first compound 0.3 µM); 0.63% (second compound 30 pM, first compound 0.949 µM); 1% (second compound 30 pM, first compound 3 µM). The viability, T/C runs as follows: (second compound 94.9 pM, first compound 0.00949 µM) 0.99%; (second compound 94.9 pM, first compound 0.03 µM) 0.82%; (second compound 94.9 pM, first compound 0.0949 µM) 0.72%; (second compound 94.9 pM, first compound 0.3 µM) 0.82%; (second compound 94.9 pM, first compound 0.949 µM) 0.82%; (second compound 94.9 pM, first compound 3 µM) 0.85%. The viability, T/C was 0.98% (second compound 0.0003 µM, first compound 0.00949 µM); 0.93% (second compound 0.0003 µM, first compound 0.03 µM); 0.92% (second compound 0.0003 µM, first compound 0.0949 µM); 0.85% (second compound 0.0003 µM, first compound 0.3 µM); 0.86% (second compound 0.0003 µM, first compound 0.949 µM); 1.35% (second compound 0.0003 µM, first compound 3 µM). Besides, the viability, T/C is, setting by setting: (second compound 0.000949 µM, first compound 0.00949 µM) 1%; (second compound 0.000949 µM, first compound 0.03 µM) 0.89%; (second compound 0.000949 µM, first compound 0.0949 µM) 0.76%; (second compound 0.000949 µM, first compound 0.3 µM) 1.25%; (second compound 0.000949 µM, first compound 0.949 µM) 0.97%; (second compound 0.000949 µM, first compound 3 µM) 0.5%. Moreover, the viability, T/C was 0.48% (second compound 0.003 µM, first compound 0.00949 µM); 0.12% (second compound 0.003 µM, first compound 0.03 µM); 0.1% (second compound 0.003 µM, first compound 0.0949 µM); 0.1% (second compound 0.003 µM, first compound 0.3 µM); 0.11% (second compound 0.003 µM, first compound 0.949 µM); 0.4% (second compound 0.003 µM, first compound 3 µM).
With `Cn1ncnc1[C@H]1c2n[nH]c(=O)c3cc(F)cc(c23)N[C@@H]1c1ccc(F)cc1`, the viability, T/C is, setting by setting: (compound 0.00949 µM) 1.22% and 3.94% and 1.23%; (compound 0.03 µM) 1.16% and 3.82% and 0.82%; (compound 0.0949 µM) 1.19% and 4.14% and 0.91%; (compound 0.3 µM) 1.37% and 3.79% and 0.88%; (compound 0.949 µM) 1.35% and 4.02% and 0.84%; (compound 3 µM) 1.37% and 3.65% and 1.07%. Moreover, where the note is “curve of compound”, the IC50 is below 9.49 nM.
